Data taken from the SangsterLogP compilation.

## CNS(=O)(=O)c1cccc2ncccc12
  logP: 1.06

## CNS(=O)(=O)c1ccc2ccccc2n1
  logP: 1.57

## CN(C)S(=O)(=O)c1cnc2ccccc2c1
  logP: 1.86

## NS(=O)(=O)c1cnc2ccccc2c1
  logP: 0.91

## CN(C)S(=O)(=O)c1ccc2cccnc2c1
  logP: 1.57

## CNS(=O)(=O)c1cccc2cccnc12
  logP: 1.13

## NS(=O)(=O)c1ccc2cccnc2c1
  logP: 0.61

## NS(=O)(=O)c1cccc2ncccc12
  logP: 0.6

## CN(C)S(=O)(=O)c1cccc2cccnc12
  logP: 1.69

## CN(C)S(=O)(=O)c1ccnc2ccccc12
  logP: 1.84

## CNS(=O)(=O)c1ccc2ncccc2c1
  logP: 1

## CN(C)S(=O)(=O)c1cccc2ncccc12
  logP: 1.56

## NS(=O)(=O)c1ccc2ccccc2n1
  logP: 1.16

## NS(=O)(=O)c1cccc2cccnc12
  logP: 0.51

## CN(C)S(=O)(=O)c1ccc2ccccc2n1
  logP: 1.98

## CNS(=O)(=O)c1cnc2ccccc2c1
  logP: 1.4

## CNS(=O)(=O)c1ccc2cccnc2c1
  logP: 1.02

## NS(=O)(=O)c1ccnc2ccccc12
  logP: 0.93

## CN(C)S(=O)(=O)c1ccc2ncccc2c1
  logP: 1.53

## CNS(=O)(=O)c1ccnc2ccccc12
  logP: 1.32
